According to patent US12661345B2, “Compositions for the treatment of hypertension” (The George Institute for Global Health, priority 2017, dated 2026):
Like-named read-outs stand apart in the source and are kept apart here.

Tested on: participants with migraine
Settings: human, in vivo
From the text: Difference between groups in participant withdrawals from treatment • 2.

CC(C)NCC(O)COc1cccc2ccccc12 (centres unmarked) [Propranolol, propranolol]
Discontinuing the study (n/N) (4 week): 0/10 | Discontinuing the study (percent) (4 week): (0.0%) | Discontinuing the study (n/N) (8 week): 0/10 | Discontinuing the study (percent) (8 week): (0.0%) | Discontinuing the study (n/N) (12 week): 0/10 | Discontinuing the study (percent) (12 week): (0.0%) | Deceased (n/N) (16 week): 0/10 | Deceased (percent) (16 week): (0.0%)
